In patent US11464770B2, “Anticancer pharmaceutical composition” (NATIONAL CANCER CENTER, priority 2016, dated 2022):
pIC50: −log10 of the molar value. Like-named read-outs stand apart in the source and are kept apart here.

Columns and labels:
[1] = test system: ovarian cancer cell lines; assay: Cell based assay, cell viability (CellTiter-Glo), ovarian cancer cell lines; settings: Homo sapiens; OVCAR-3 cells
Procedure: (§1) Commercially available bladder cancer, prostate cancer, lung cancer, breast cancer, blood cancer, pancreatic cancer, colorectal cancer, brain cancer, neuroblastoma, melanoma, liver cancer, cervical carcinoma, ovarian cancer, renal cancer, and papilloma cell lines were each treated with trypsin-EDTA and cultured, followed by being seeded in each well of a 96 well plate. After 24 hours of treatment at constant temperature, the respective cells were treated with the candidate compound so that a final concentration became 0 to 2 μM. The treated cells were additionally cultured for 72 hours, and cell viability was measured by using an ATP detection method (CellTiter-Glo® Luminescent Cell Viability Assay, Promega).

neuroblastoma cell lines = assay: Cell based assay, cell viability (CellTiter-Glo), neuroblastoma cell lines; settings: Homo sapiens; SH-SY5Y cell line
Procedure: as §1

[2] = test system: bladder cancer cell lines; assay: Cell based assay, cell viability (CellTiter-Glo), bladder cancer cell lines; settings: 72 hours treatment, 0 to 2 μM, CellTiter-Glo
Procedure: as §1

liver cancer cell lines = assay: Cell based assay, cell viability (CellTiter-Glo), liver cancer cell lines; settings: Homo sapiens, SK-HEP1; SK-HEP-1 cell line
Procedure: as §1

[3] = test system: RT4: human urinary bladder transitional cell papilloma; assay: Cell based assay, cytotoxicity in RT4 papilloma cells (selectivity); settings: Homo sapiens, RT-4; RT4 cells
Procedure: Commercially available bladder cancer, prostate cancer, lung cancer, breast cancer, blood cancer, pancreatic cancer, colorectal cancer, brain cancer, neuroblastoma, melanoma, liver cancer, cervical carcinoma, ovarian cancer, renal cancer, and papilloma cell lines were each treated with trypsin-EDTA and cultured, followed by being seeded in each well of a 96 well plate. […] The treated cells were additionally cultured for 72 hours, and cell viability was measured by using an ATP detection method (CellTiter-Glo® Luminescent Cell Viability Assay, Promega).

renal cancer cell lines = assay: Cell based assay, cell viability (CellTiter-Glo), renal cancer cell lines; settings: Homo sapiens; ACHN cells
Procedure: as §1

[4] = 253J cells, read-out: IC50, bladder cancer cell line 253J
[5] = 5637 cells, read-out: IC50, bladder cancer cell line 5637
[6] = Homo sapiens, T-24, T24 cells, read-out: IC50, bladder cancer cell line T24
[7] = Homo sapiens, UMUC3, UM-UC-3 cells, read-out: IC50, bladder cancer cell line UM-UC-3
[8] = Homo sapiens, J82 cells, read-out: IC50, bladder cancer cell line J82
[9] = Homo sapiens, KU-19-19 cells, read-out: IC50, bladder cancer cell line KU-19-19
[10] = MBT-2 cells, read-out: IC50, bladder cancer cell line MBT-2

| SMILES | pIC50 [1] | pIC50 (neuroblastoma cell lines) | pIC50 [2, 4] | pIC50 [2, 5] | pIC50 [2, 6] | pIC50 [2, 7] | pIC50 [2, 8] | pIC50 [2, 9] | pIC50 [2, 10] | pIC50 (liver cancer cell lines) | pIC50 [3] | pIC50 (renal cancer cell lines) |
| --- | --- | --- | --- | --- | --- | --- | --- | --- | --- | --- | --- | --- |
| CC(=O)c1c([S+](C)[O-])[nH]c2c(Br)ccc(Cl)c2c1=O (centres unmarked) [Compound 1, 3-acetyl-8-bromo-5-chloro-2-(methylsulfinyl)quinolin-4(1H)-one] | 6.15 | < 5.70 | 5.87 | 5.78 | 5.87 | 5.82 | < 5.70 | 5.71 | 5.92 | 5.91 | < 5.00 | < 5.70 |
| CSc1[nH]c2c(Br)ccc(Cl)c2c(=O)c1C(C)=O [Compound 2, 3-acetyl-8-bromo-5-chloro-2-(methylthio)quinolin-4(1H)-one] | < 5.70 | < 5.70 | < 5.70 | < 5.70 | < 5.70 | < 5.70 | < 5.70 | < 5.70 | < 5.70 | < 5.70 | < 5.00 | < 5.70 |
| CC(=O)c1c(SCc2ccccc2)[nH]c2c(Br)ccc(Cl)c2c1=O [Compound 3, 3-acetyl-2-(benzylthio)-8-bromo-5-chloroquinolin-4(1H)-one] | < 5.70 | < 5.70 | < 5.70 | < 5.70 | < 5.70 | < 5.70 | < 5.70 | < 5.70 | < 5.70 | < 5.70 | < 5.00 | < 5.70 |
| CC(=O)c1c([S+]([O-])Cc2ccccc2)nc2c(Br)ccc(Cl)c2c1O (centres unmarked) [Compound 4] | 6.09 | < 5.70 | 6.00 | 5.72 | 5.88 |  | < 5.70 |  |  | 5.95 | < 5.00 | < 5.70 |
| CSc1c(C(C)=O)c(=O)c2c(Cl)ccc(Br)c2n1C [Compound 5, 3-acetyl-8-bromo-5-chloro-1-methyl-2-(methylthio)quinolin-4(1H)-one] | < 5.70 | < 5.70 | < 5.70 | < 5.70 | < 5.70 | < 5.70 | < 5.70 | < 5.70 | < 5.70 | < 5.70 | < 5.00 | < 5.70 |
| CC(=O)c1c([S+](C)[O-])[nH]c2c(Cl)ccc(Cl)c2c1=O (centres unmarked) [Compound 6, 3-acetyl-5,8-dichloro-2-(methylsulfinyl)quinolin-4(1H)-one] | 6.14 | < 5.70 | 5.91 | 5.77 | 5.85 | 5.84 | < 5.70 | < 5.70 | 5.84 | 5.86 | < 5.00 | < 5.70 |
| CSc1c(C(C)=O)c(=O)c2cc(F)ccc2n1C [Compound 7, 3-acetyl-6-fluoro-1-methyl-2-(methylthio)quinolin-4(1H)-one] | < 5.70 | < 5.70 | < 5.70 | < 5.70 | < 5.70 | < 5.70 | < 5.70 | < 5.70 | < 5.70 | < 5.70 | < 5.00 | < 5.70 |
| CSc1[nH]c2ccc(F)cc2c(=O)c1C(C)=O [Compound 8, 1-(6-fluoro-4-hydroxy-2-(methylthio)quinolin-3-yl)ethan-1-one] | < 5.70 | < 5.70 | < 5.70 | < 5.70 | < 5.70 | < 5.70 | < 5.70 | < 5.70 | < 5.70 | < 5.70 | < 5.00 | < 5.70 |
| CC(=O)c1c([S+](C)[O-])n(C(=O)c2ccc(Br)cc2)c2c(Br)ccc(Cl)c2c1=O (centres unmarked) [Compound 9, 3-acetyl-8-bromo-1-(4-bromobenzoyl)-5-chloro-2-(methylsulfinyl)quinolin-4(1H)-one] | 6.24 | < 5.70 | 5.96 | 5.79 | 5.94 | 5.93 | < 5.70 | 5.71 | 5.92 | 6.00 | < 5.00 | < 5.70 |
| CC(=O)c1c(SCc2ccc(Cl)cc2)[nH]c2c(Br)ccc(Cl)c2c1=O [Compound 10, 3-acetyl-8-bromo-5-chloro-2-((4-chlorobenzyl)thio)quinolin-4(1H)-one] | < 5.70 | < 5.70 | < 5.70 | < 5.70 | < 5.70 | < 5.70 | < 5.70 | < 5.70 | < 5.70 | < 5.70 | < 5.00 | < 5.70 |
| CC(=O)c1c([S+]([O-])Cc2ccc(Cl)cc2)[nH]c2c(Br)ccc(Cl)c2c1=O (centres unmarked) [Compound 11, 3-acetyl-8-bromo-5-chloro-2-((4-chlorobenzyl)sulfinyl)quinolin-4(1H)-one] | < 5.70 | < 5.70 |  | < 5.70 | 5.74 |  | < 5.70 |  |  | < 5.70 | < 5.00 | < 5.70 |
| CC(=O)c1c(Sc2ccccc2)[nH]c2c(Br)ccc(Cl)c2c1=O [Compound 12, 3-acetyl-8-bromo-5-chloro-2-(phenylthio)quinolin-4(1H)-one] | < 5.70 | < 5.70 | < 5.70 | < 5.70 | < 5.70 | < 5.70 | < 5.70 | < 5.70 | < 5.70 | < 5.70 | < 5.00 | < 5.70 |
| CC(=O)c1c([S+]([O-])c2ccccc2)[nH]c2c(Br)ccc(Cl)c2c1=O (centres unmarked) [Compound 13, 3-acetyl-8-bromo-5-chloro-2-(phenylsulfinyl)quinolin-4(1H)-one] | < 5.70 | < 5.70 | < 5.70 | < 5.70 | < 5.70 |  | < 5.70 |  |  | < 5.70 | < 5.00 | < 5.70 |
| COc1ccccc1Sc1[nH]c2c(Br)ccc(Cl)c2c(=O)c1C(C)=O [Compound 14, 3-acetyl-8-bromo-5-chloro-2-((2-methoxyphenyl)thio)quinolin-4(1H)-one] | < 5.70 | < 5.70 | < 5.70 | < 5.70 | < 5.70 | < 5.70 | < 5.70 | < 5.70 | < 5.70 | < 5.70 | < 5.00 | < 5.70 |
| COc1ccccc1[S+]([O-])c1[nH]c2c(Br)ccc(Cl)c2c(=O)c1C(C)=O (centres unmarked) [Compound 15, 3-acetyl-8-bromo-5-chloro-2-((2-methoxyphenyl)sulfinyl)quinolin-4(1H)-one] | < 5.70 | < 5.70 | < 5.70 | < 5.70 | < 5.70 |  | < 5.70 |  |  | < 5.70 | < 5.00 | < 5.70 |
| CC(=O)c1c(Sc2ccc(Br)cc2)[nH]c2c(Br)ccc(Cl)c2c1=O [Compound 16, 3-acetyl-8-bromo-2-((4-bromophenyl)thio)-5-chloroquinolin-4(1H)-one] | < 5.70 | < 5.70 | < 5.70 | < 5.70 | < 5.70 | < 5.70 | < 5.70 | < 5.70 | < 5.70 | < 5.70 | < 5.00 | < 5.70 |
